A melting point compilation (Tetko et al.; mined from patent text by program, amines drawn as free bases though some values may be those of a salt)

melting point [°C] | Compound
136 to 138 | O=[N+]([O-])C=C1SCCN1Cc1ccccc1
193 to 195 | O=C(O)c1cc(CCNS(=O)(=O)c2ccccc2)c2cccccc1-2
251 to 253 | NS(=O)(=O)c1ccc(NC(=O)Nc2c(F)c(F)c(F)c(F)c2F)cc1
109 to 110 | CN(C)c1cc(-n2nc(N(C)C)n(C)c2=O)c(F)cc1C#N
52 to 58 | O=C1C=C(O)CC(CCc2ccc(O)cc2)(C2CCCCC2)O1 (stereo not given)
170 to 172 | COc1ccc(N2C(=O)N(c3cccc(C#N)c3)c3nc(Nc4cccc(CCOC(C)=O)c4)ncc3C2C)cc1 (stereo not given)
99 to 100 | COc1cc(COc2nn(Cc3ccccc3)cc2CC(=O)O)ccc1OCc1nc(-c2ccccc2)oc1C
148 to 151 | CCc1cccc2c3c([nH]c12)C(C)(CC(=O)O)CCCC3 (stereo not given)
61 to 63 | CCCCCC(=O)Nc1ccc2ccn(CCCCCCCC(=O)OC)c2c1
323 | CNc1nc(Nc2ccc(S(C)(=O)=O)cc2)ncc1[N+](=O)[O-]
71 to 73 | CCCCOc1ccc2nc(C(C)=O)c(O)cc2c1
248 to 249 | COc1cc(Oc2ccc(S(C)(=O)=O)nc2)cc2cc(C3=NCC(CC(=O)NC4CC4)S3)[nH]c12 (stereo not given)
105 | COc1ccc2c(-c3ccccc3)c(C(=O)c3cccc(Cl)c3)sc2c1
130 to 133 | CC(=O)c1cccc(NC(=O)C(C)(C)C)c1
98 to 99 | CCCCCCc1cc2c(cc1C(=O)O)C(C)(C)CCC2(C)C
169 to 172 | Cc1ccc(NC(=O)c2ccc(CN(C)C)c(C(F)(F)F)c2)cc1Br
100 to 102 | CCOC(=O)c1ccc(-c2ccsc2)nc1C(=O)OCC
140 | O=C(Nc1ccccc1S(=O)(=O)N1CCCCC1)N[C@@H](Cc1ccc(Oc2nccc3cnccc23)cc1)C(=O)O
170 to 171 | CCCC(=O)Nc1n[nH]c2c(N)cc(C)nc12
160 to 161 | O=C1c2ccccc2-c2c1c1ccccc1c(=O)n2CCCCCCCNS(=O)(=O)c1ccc(Br)cc1
195 to 197 | CCc1cc(Nc2ccc(C(Cc3ccccc3)C(=O)O)cc2)n2nccc2n1 (stereo not given)
127 to 128 | Oc1cnn(-c2ccc(Cl)cc2)c1
181 to 182 | O=C(Nc1cc(Cl)cc(Cl)c1)c1cc(Br)cc(Br)c1O
172 | COC(=O)c1ccc(COCn2cc(Cl)cnc2=O)cc1
128 to 131 | CN1C=C2c3ccccc3Cc3ccccc3C2C1 (stereo not given)

melting point [°C] | Compound
94 to 96 | CCOC(=O)c1cc(C(=O)OC)c(=O)oc1C
134 to 136 | CNC(=O)C(C)Oc1cc(-c2nn(C)c(C(F)(F)F)c2Cl)c(F)cc1Cl (stereo not given)
109 to 113 | COc1c(C)cc(C)cc1C(N)=O
132 | CCCCn1cccc1C(=O)N(C)C
140 to 141 | O=C(O)c1cc2cc(Br)ccc2nc1N[C@H](Cc1ccccc1)C(=O)O
140 | CC(C(=O)Nc1ccc(C(=O)c2cccs2)cc1)c1ccccc1 (stereo not given)
158 | O=C(NC(=Cc1ccccc1)c1cccs1)C(F)(F)F
199 to 200 | CCC(CS(=O)(=O)c1ccc(-c2ccc(OC)cc2)cc1)N(O)C=O (stereo not given)
210 to 212 | Cc1c(C)c(OCC(=O)N2CCN(c3ccc(N=C(N)c4cccs4)cc3)CC2)c(C)c(C)c1O
103 to 106 | COc1ccc(Cl)cc1C(=O)NCCc1ccc(CCCCCCCC(=O)O)cc1
141 to 145 | CCOC(=O)Cn1c(=O)n(Cc2ccc(Cl)c(Cl)c2)c(=O)c2c(C)c(Cl)sc21
172 to 173 | CN1C(=O)C=C[C@]2(C)c3ccc(-c4cccc5ccccc45)cc3CC[C@@H]12
160 to 163 | Nc1sc2c(c1C(=O)c1ccc(Br)s1)CCCC2
123 | O=S(Cc1ccccc1)C1CCN(Cc2ccccc2)CC1 (racemic)
97 | CSc1n[nH]c(=O)n1C
146 to 150 | CC1(C(=O)O)CCc2c(C(=O)c3ccc(Cl)cc3)cccc21 (stereo not given)
258 to 260 | CC1(c2ccc(S(N)(=O)=O)cc2)Cc2cc(OCC(=O)O)c(Cl)c(Cl)c2C1=O (stereo not given)
135 to 140 | COc1cc(CC(=O)C(CNCCOc2ccc(C(=O)O)cc2OC)NC2CC2)ccc1NC(=O)Nc1ccccc1C (stereo not given)
133 to 135 | N#CN=C(Nc1cccnc1)NC(NC(=O)c1ccccc1)C(Cl)(Cl)Cl (stereo not given)
65 to 70 | COC(=O)c1ccc(OCCNC(=O)C2Cc3ccccc3N2S(=O)(=O)c2ccc(-c3cccc(C(F)(F)F)c3)cc2)c(F)c1 (stereo not given)
198 | CCOC(=O)COc1ccc(-c2nc3ncccc3[nH]2)c(OC)c1
136 to 140 | CC(C)(C)OC(=O)N1CCN(c2ccc([N+](=O)[O-])cc2)CC1
162 to 163 | CS(=O)(=O)CC(=O)c1ccc(NS(C)(=O)=O)c(Oc2ccc(F)cc2F)c1
116 to 118 | Fc1ccc(-c2cn3c(n2)SCC3)cc1
202 to 204 | Nc1ccc(C(=O)Nc2ccccc2-c2nnn[nH]2)cc1

melting point [°C] | Compound
127 to 128 | CCOCc1nc2cnc3cc(Br)cnc3c2n1CC(C)(C)F
109 to 111 | c1ccc(CN2CCC3(CC2)Oc2ccccc2Cn2cccc23)cc1
220 to 223 | CC(=O)N1CCc2cc(S(=O)(=O)n3c(CCC(=O)O)cc4cc(Cl)ccc43)ccc21
254 to 256 | COc1cc2ncnc(N3CCN(C(=O)Nc4ccc(N5CCOCC5)cc4)CC3)c2cc1OC
198 | CCOC(=O)c1c(N2CCN(C(=O)c3cccs3)CC2)c2ccccc2[nH]c1=O
126 to 128 | CC(C)C(c1cncnc1C(F)(F)F)N1CCN(c2ccccc2)C1=O (stereo not given)
47.5 to 49 | COc1ccc2c(c1)CCC1C2CCC2(C)C(NCCCCCCCCN)CCC12 (stereo not given)
166 to 172 | COc1ccc(CCNC(=S)Nc2nc3ccccc3[nH]2)cc1
123 | CCOc1nn(C(=S)Oc2ccccc2)c(=O)n1C
129 to 131 | COc1cccc(Oc2ccccc2C(=O)O)c1
159 | CC(C)(C)OC(=O)CS(=O)c1cccc(-c2nc(=O)c3ccccc3s2)n1 (stereo not given)
230 | COC(=O)C1=C(C)Nc2c(c(=O)n(C)c(=O)n2C)C1c1cccc(Cl)c1 (stereo not given)
111 to 112 | CNC(=O)C(C)n1cc(C)c(-c2ccccc2)n1 (stereo not given)
169 to 171 | CC(c1ccc(I)cc1)C(O)(Cn1cncn1)c1ccc(F)cc1F (stereo not given)
220 | CON=CC(C)(C)NC(=O)c1c(I)cccc1C(=O)Nc1ccc(OC(C(F)(F)F)C(F)(F)F)nc1C
206 to 209 | O=C(CNC(=O)c1ccccc1C(=O)O)Nc1ccc(C(=O)C[N+](=O)[O-])c(Cl)c1
100 to 101 | N#CCOc1cccnc1N
192 to 194 | O=Cc1cccc(-c2cc3c4c(ccn4C(=O)CNC3)c2)c1
197 to 200 | C(=CCN1C(c2ccccc2)CCCC1c1ccccc1)CN1C(c2ccccc2)CCCC1c1ccccc1 (stereo not given)
102 to 104 | N#CN=C(Nc1cccnc1)NC1(c2cccc(Cl)c2)CCC1
166 | Cc1ccc(S(=O)(=O)NC(=O)Nc2ccccc2)cc1
45 to 47 | COc1cc(C=CC(=O)C=Cc2cc(OC)c(OC)c(OC)c2)cc(OC)c1OC
125 to 129 | CC(C(=O)O)c1ccc(N)cc1 (stereo not given)
135 to 142 | Nc1cc(NC(=O)c2ccc(F)c(F)c2)ccc1F
136 to 138 | CNc1ccc(C#Cc2cccc(-c3nc(NC)nc4cc(OC)c(OC)cc34)c2)cn1

melting point [°C] | Compound
190 to 195 | CCCN1C(=O)N2CC(c3cccnc3)CN=C2c2[nH]c(C3CCCC3)nc21 (stereo not given)
89 | COC1(c2nc(Sc3ccc(/C(C)=N/O)cc3)cs2)CCOCC1
160 to 161 | CC(=O)NS(=O)(=O)c1ccc(N2CCN(CC[C@@H]3OCCc4ccccc43)CC2)cc1
45 to 47 | CC(C)(C)c1ccc(OCC(O)CCCl)cc1 (stereo not given)
252 | CCc1nc2c(C)cc(C)nc2n1Cc1ccc2nc(-c3ccccc3NS(=O)(=O)C(F)(F)F)ccc2c1
> 300 | Cc1[nH]c(-c2nc3ccc(C(=O)c4ccccc4)cc3[nH]2)c(C)c1C(=O)O
149 to 150 | C=C1CC(COc2ccc3c(C)c(Cl)c(=O)oc3c2)(c2ccccc2)OC1=O (stereo not given)
227 to 228 | Cc1cc(-c2nc3cccnn3c2-c2ccnc(NC(=O)CCS(C)(=O)=O)c2)ccc1F
163 | COc1cccc2c1OC(CN1CCC(NC(=O)Nc3ccccc3)CC1)CC2 (stereo not given)
126 to 128 | CN(C)Cc1cccc(OCCCNc2nc(-c3ccccc3)n[nH]2)c1
94 to 95 | CCOC(=O)c1[nH]c2c(c1O)CCCC2
162 to 163 | CC(C)(C)c1ccc(/C=N/OCc2ccc(C(=O)O)c(Br)c2)cc1
189 to 191 | CS(=O)(=O)c1ccc(-c2sc(COc3ccccc3Cl)nc2-c2ccc(F)cc2)cc1
181 to 183 | CCN(C)c1nc2cc(NC(=O)OC(C)(C)C)ccn2n1
84 to 86 | CCCCCCCCCCCc1cc2ccc(C(=O)OCC)cc2[nH]1
129 to 131 | COc1ccc(-c2cc3cc(OC)cc(C=C(Cl)Cl)c3o2)cc1
168 to 170 | COc1cc2c(c(OC)c1OC)-c1ccc(SC)c(=O)cc1C(N)CC2 (stereo not given)
156 to 158 | COc1ccc(NS(C)(=O)=O)nc1
115 to 118 | CCOC(=O)N1CCN(C2=C(O)C(=O)c3ccccc3C2=O)CC1
186 to 189 | CN1CCN(CCCNc2ncc3cc(-c4c(Cl)cccc4Cl)c(NC(=O)Nc4cccc5ccccc45)nc3n2)CC1
63 to 67 | CCCCC1=NC(NC(=O)C2(NC(=O)CCC(C)C)CCCC2)C(=O)N(Cc2ccccn2)c2ccccc21 (stereo not given)
139 to 141 | CN1CCN(C(=O)c2cccn2Cc2ccccc2N)CC1
224 to 226 | CN(C(=O)OC(C)(C)C)C1CC=C(c2c[nH]c3ccc([N+](=O)[O-])cc23)CC1 (stereo not given)
170 to 173 | Cc1ccccc1C(=O)n1ccc(-c2ccc(C(=O)N3Cc4cccn4Cc4ccccc43)cc2)n1

Compound | melting point [°C]
c1c2c(cc3c1OCO3)CCNCC2 | 82 to 84
